Assay results published in publication PMC13366236 (Acta Pharmaceutica Sinica. B, 2025).

Key:
mTOR = mTOR (Homo sapiens, UniProt P42345); experiment: mTOR kinase inhibition, Lance Ultra assay; format: biochemical
MDA-MB-231 cells = experiment: Cell viability CCK-8 assay; format: cell-based, human; conditions: Homo sapiens, MDA-MB-231, 48 h, read-out: Antiproliferative IC50 ± SD
[1] = mTOR, IC50, mean ± SD of triplicate measurements

Row | IC50 (mTOR; [1]) | Structure (SMILES) | also measured
1 | 2.61 ± 0.201 µM | CN(C)CCC(=O)Nc1ccccc1/N=c1\cc(-c2ccc3nc(N)oc3c2)oc2ccccc12 [Compound 12e, (E)-N-(2-((2-(2-aminobenzo[d]oxazol-6-yl)-4H-chromen-4-ylidene)amino)phenyl)-3-(dimethylamino)propanamide] | –
2 | 3.37 ± 0.334 µM | COCCC(=O)Nc1ccccc1/N=c1\cc(-c2ccc3nc(N)oc3c2)oc2ccccc12 [Compound 12b, (E)-N-(2-((2-(2-aminobenzo[d]oxazol-6-yl)-4H-chromen-4-ylidene)amino)phenyl)-3-methoxypropanamide] | –
3 | – | CC(=O)O[C@H]1C(=O)[C@@]2(C)[C@H]([C@H](OC(=O)c3ccccc3)[C@]3(O)C[C@H](OC(=O)[C@H](O)[C@@H](NC(=O)c4ccccc4)c4ccccc4)C(C)=C1C3(C)C)[C@]1(OC(C)=O)CO[C@@H]1C[C@@H]2O [Paclitaxel, reference compound] | IC50 (MDA-MB-231 cells): 3862 ± 13.2 nM
4 | > 10 µM | CCN(CC)CCC(=O)Nc1ccccc1/N=c1\cc(-c2ccc3nc(N)oc3c2)oc2ccccc12 [Compound 12f, (E)-N-(2-((2-(2-aminobenzo[d]oxazol-6-yl)-4H-chromen-4-ylidene)amino)phenyl)-3-(diethylamino)propanamide] | –
5 | 2.66 ± 0.38 µM | CCNc1nc2ccc(-c3c/c(=N\c4ccccc4NC(=O)CCN)c4ccccc4o3)cc2o1 [Compound 15, (E)-3-amino-N-(2-((2-(2-(ethylamino)benzo[d]oxazol-6-yl)-4H-chromen-4-ylidene)amino)phenyl)propanamide] | –
6 | > 10 µM | C[C@H](N)C(=O)Nc1ccccc1/N=c1\cc(-c2ccc3c(c2)OCCO3)oc2cc(F)ccc12 [Compound 5x, (S,E)-2-amino-N-(2-((2-(2,3-dihydrobenzo[b][1,4]dioxin-6-yl)-7-fluoro-4H-chromen-4-ylidene)amino)phenyl)propanamide] | –
7 | 1.54 ± 0.0211 µM | Nc1ccccc1/N=c1\cc(-c2ccc3c(c2)OCO3)oc2ccccc12 [Compound 4a] | IC50 (mTOR; mTOR IC50, text and Fig. 3A): 1.5 µM
8 | > 10 µM | Nc1nc2ccc(-c3c/c(=N\c4ccccc4NC(=O)CCN4CCCC4)c4ccccc4o3)cc2o1 [Compound 12g, (E)-N-(2-((2-(2-aminobenzo[d]oxazol-6-yl)-4H-chromen-4-ylidene)amino)phenyl)-3-(pyrrolidin-1-yl)propanamide] | –
9 | – | CC(C)n1nc(-c2ccc3oc(N)nc3c2)c2c(N)ncnc21 [MLN-0128, reference compound] | IC50 (MDA-MB-231 cells): 179 ± 238 nM
10 | > 10 µM | COc1ccc2/c(=N/c3ccccc3NC(=O)[C@H](C)N)cc(-c3ccc4c(c3)OCCO4)oc2c1 [Compound 5s, (S,E)-2-amino-N-(2-((2-(2,3-dihydrobenzo[b][1,4]dioxin-6-yl)-7-methoxy-4H-chromen-4-ylidene)amino)phenyl)propanamide] | –
11 | 3.19 ± 0.194 µM | C[C@H](N)C(=O)Nc1ccccc1/N=c1\cc(-c2ccc3c(c2)OCO3)oc2ccccc12 [Compound 5b, (S,E)-2-amino-N-(2-((2-(benzo[d][1,3]dioxol-5-yl)-4H-chromen-4-ylidene)amino)phenyl)propanamide] | –
12 | 0.696 ± 0.0582 µM | NCCC(=O)Nc1ccccc1/N=c1\cc(-c2ccc3oc(N)nc3c2)oc2ccccc12 [Compound 21, (E)-3-amino-N-(2-((2-(2-aminobenzo[d]oxazol-5-yl)-4H-chromen-4-ylidene)amino)phenyl)propanamide] | fold decrease in kinase inhibitory activity (mTOR) (mTOR; vs 12a): 15.4 fold
13 | > 10 µM | NCCC(=O)Nc1ccc(/N=c2\cc(-c3ccc4c(c3)OCO4)oc3ccccc23)cc1 [Compound 5ac, (E)-3-amino-N-(4-((2-(benzo[d][1,3]dioxol-5-yl)-4H-chromen-4-ylidene)amino)phenyl)propanamide] | –
14 | 0.719 ± 0.0074 µM | NCC(=O)Nc1ccccc1/N=c1\cc(-c2ccc3c(c2)OCO3)oc2ccccc12 [Compound 5a, (E)-2-amino-N-(2-((2-(benzo[d][1,3]dioxol-5-yl)-4H-chromen-4-ylidene)amino)phenyl)acetamide] | –
15 | > 10 µM | NCC(=O)Nc1ccccc1/N=c1\cc(-c2ccc3c(c2)OCCO3)oc2cc(F)ccc12 [Compound 5y, (E)-2-amino-N-(2-((2-(2,3-dihydrobenzo[b][1,4]dioxin-6-yl)-7-fluoro-4H-chromen-4-ylidene)amino)phenyl)acetamide] | –
16 | 0.317 ± 0.0191 µM | NCCC(=O)Nc1ccccc1/N=c1\cc(-c2ccc3c(c2)OCO3)oc2ccccc12 [Compound 5e, (E)-3-amino-N-(2-((2-(benzo[d][1,3]dioxol-5-yl)-4H-chromen-4-ylidene)amino)phenyl)propanamide] | –
17 | 3.39 ± 0.164 µM | CS(=O)(=O)NCCC(=O)Nc1ccccc1/N=c1\cc(-c2ccc3nc(N)oc3c2)oc2ccccc12 [Compound 12d, (E)-N-(2-((2-(2-aminobenzo[d]oxazol-6-yl)-4H-chromen-4-ylidene)amino)phenyl)-3-(methylsulfonamido)propanamide] | –

Row | IC50 (mTOR; [1]) | Structure (SMILES) | also measured
18 | 1.24 ± 0.0861 µM | N#Cc1ccc2oc(-c3ccc4nc(N)oc4c3)c/c(=N\c3ccccc3NC(=O)CCN)c2c1 [Compound 12l, (E)-3-amino-N-(2-((2-(2-aminobenzo[d]oxazol-6-yl)-6-cyano-4H-chromen-4-ylidene)amino)phenyl)propanamide] | –
19 | > 10 µM | COc1ccc2/c(=N/c3ccccc3NC(=O)CN)cc(-c3ccc4c(c3)OCCO4)oc2c1 [Compound 5t, (E)-2-amino-N-(2-((2-(2,3-dihydrobenzo[b][1,4]dioxin-6-yl)-7-methoxy-4H-chromen-4-ylidene)amino)phenyl)acetamide] | –
20 | > 10 µM | O=C(Nc1ccccc1/N=c1\cc(-c2ccc3c(c2)OCO3)oc2ccccc12)N1CCOCC1 [Compound 5h, (E)-N-(2-((2-(benzo[d][1,3]dioxol-5-yl)-4H-chromen-4-ylidene)amino)phenyl)morpholine-4-carboxamide] | –
21 | 1.52 ± 0.121 µM | NCC(=O)Nc1ccccc1/N=c1\cc(-c2ccc3c(c2)OCCO3)oc2ccccc12 [Compound 5p, (E)-2-amino-N-(2-((2-(2,3-dihydrobenzo[b][1,4]dioxin-6-yl)-4H-chromen-4-ylidene)amino)phenyl)acetamide] | –
22 | > 10 µM | N[C@@H](CO)C(=O)Nc1ccccc1/N=c1\cc(-c2ccc3c(c2)OCO3)oc2ccccc12 [Compound 5c, (S,E)-2-amino-N-(2-((2-(benzo[d][1,3]dioxol-5-yl)-4H-chromen-4-ylidene)amino)phenyl)-3-hydroxypropanamide] | –
23 | > 10 µM | COCCC(=O)Nc1ccccc1/N=c1\cc(-c2ccc3c(c2)OCO3)oc2ccccc12 [Compound 5d, (E)-N-(2-((2-(benzo[d][1,3]dioxol-5-yl)-4H-chromen-4-ylidene)amino)phenyl)-3-methoxypropanamide] | –
24 | > 10 µM | Nc1nc2ccc(-c3c/c(=N\c4ccccc4NC(=O)CCN4CCOCC4)c4ccccc4o3)cc2o1 [Compound 12h, (E)-N-(2-((2-(2-aminobenzo[d]oxazol-6-yl)-4H-chromen-4-ylidene)amino)phenyl)-3-morpholinopropanamide] | –
25 | 6.16 ± 1.11 µM | NCC(=O)Nc1ccccc1/N=c1\cc(-c2ccc3c(c2)OCO3)oc2c(N)cccc12 [Compound 5m, (E)-2-amino-N-(2-((2-(benzo[d][1,3]dioxol-5-yl)-8-amino-4H-chromen-4-ylidene)amino)phenyl)acetamide] | –
26 | > 10 µM | CC(C)(C)[C@H](N)C(=O)Nc1ccccc1/N=c1\cc(-c2ccc3c(c2)OCO3)oc2ccccc12 [Compound 5j, (S,E)-2-amino-N-(2-((2-(benzo[d][1,3]dioxol-5-yl)-4H-chromen-4-ylidene)amino)phenyl)-3,3-dimethylbutanamide] | –
27 | > 10 µM | NCCCCC(=O)Nc1ccccc1/N=c1\cc(-c2ccc3c(c2)OCO3)oc2ccccc12 [Compound 5g, (E)-5-amino-N-(2-((2-(benzo[d][1,3]dioxol-5-yl)-4H-chromen-4-ylidene)amino)phenyl)pentanamide] | –
28 | 7.47 ± 0.139 µM | O=C(Nc1ccccc1/N=c1\cc(-c2ccc3c(c2)OCO3)oc2ccccc12)N1CCNCC1 [Compound 5i, (E)-N-(2-((2-(benzo[d][1,3]dioxol-5-yl)-4H-chromen-4-ylidene)amino)phenyl)piperazine-1-carboxamide] | –
29 | – | CO[C@H]1C[C@@H]2CC[C@@H](C)[C@@](O)(O2)C(=O)C(=O)N2CCCC[C@H]2C(=O)O[C@H]([C@H](C)C[C@@H]2CC[C@@H](OCCO)[C@H](OC)C2)CC(=O)[C@H](C)/C=C(\C)[C@@H](O)[C@@H](OC)C(=O)[C@H](C)C[C@H](C)/C=C/C=C/C=C/1C [Everolimus, reference compound] | IC50 (MDA-MB-231 cells): 2280 ± 76.3 nM
30 | 9.34 ± 0.748 µM | NCCC(=O)Nc1ccccc1/N=c1\cc(-c2ccc3nc(N)oc3c2)oc2cc(Br)ccc12 [Compound 12o, (E)-3-amino-N-(2-((2-(2-aminobenzo[d]oxazol-6-yl)-7-bromo-4H-chromen-4-ylidene)amino)phenyl)propanamide] | –
31 | > 10 µM | NCCC(=O)Nc1cccc(/N=c2\cc(-c3ccc4c(c3)OCO4)oc3ccccc23)c1 [Compound 5ab, (E)-3-amino-N-(3-((2-(benzo[d][1,3]dioxol-5-yl)-4H-chromen-4-ylidene)amino)phenyl)propanamide] | –
32 | > 10 µM | C[C@H](N)C(=O)Nc1ccccc1/N=c1\cc(-c2ccc3c(c2)OCCO3)oc2c(N)cccc12 [Compound 5r, (S,E)-2-amino-N-(2-((8-amino-2-(2,3-dihydrobenzo[b][1,4]dioxin-6-yl)-4H-chromen-4-ylidene)amino)phenyl)propanamide] | –
33 | 8.19 ± 1.85 µM | NCCCC(=O)Nc1ccccc1/N=c1\cc(-c2ccc3c(c2)OCO3)oc2ccccc12 [Compound 5f, (E)-4-amino-N-(2-((2-(benzo[d][1,3]dioxol-5-yl)-4H-chromen-4-ylidene)amino)phenyl)butanamide] | –
34 | > 10 µM | C[C@H](N)C(=O)Nc1ccccc1/N=c1\cc(-c2ccc3c(c2)OCCO3)oc2c([N+](=O)[O-])cccc12 [Compound 5q, (S,E)-2-amino-N-(2-((2-(2,3-dihydrobenzo[b][1,4]dioxin-6-yl)-8-nitro-4H-chromen-4-ylidene)amino)phenyl)propanamide] | –
